Data set [1] in a line: Evaluation of compounds' pharmacokinetics in SD rats in vivo (intravenous injection and oral administration). Further details: species or system Sprague Dawley rats. The settings on record: single intravenous injection and oral administration; for AUC: read-out: Concentration integral AUC; for half-life: read-out: Half life T1/2 (converted); for bioavailability: oral, read-out: Bioavailability F. Here is the method: Objective: To test the pharmacokinetics of compounds in SD rats in vivo.
Sprague Dawley rats (male, 200-300 g, 7-9 weeks old, Shanghai Slack)
The pharmacokinetics profile of the compound in rodent after intravenous injection and oral administrations was tested using a standard protocol. In the assay, the candidate compound was formulated into a clear solution, and was given to the rats through a single intravenous injection and oral administration. The vehicles for the intravenous injection and oral administration were an aqueous hydroxypropyl β-cyclodextrin solution or dimethyl sulfoxide in aqueous PEG400 solution in a proper proportion. The whole blood samples were collected within 24 hours, centrifuged at 3000 g for 15 minutes, and plasma samples were obtained by separating the supernatant. 4 times volume of acetonitrile solution containing an internal standard was added to precipitate proteins. After centrifugation, the supernatant was collected, to which an equal volume of water was added, and further centrifuged to collect the supernatant. The LC-MS/MS method was used to quantitatively analyze the plasma concentration, and the pharmacokinetics parameters, such as peak concentration, peak time, clearance rate, half-life, area under the curve, and bioavailability were calculated.

In the next data set the target is T1, S1P1 receptor (Homo sapiens, UniProt P21453).
T1 construct: expressed in transfected cells
In words: S1P1 receptor agonistic activity assay (PathHunter cell strain, chemiluminescent signal detection). The settings on record: PathHunter cells, agonist mode, 37° C. for 90-180 minutes. Format: cell-based. Here is the method:
1. A PathHunter cell strain was thawed according to standard procedures;
2. The cell was seeded in 20 μl 384-well microplates and incubated at 37° C. for an appropriate time.
1. For an agonist assay, the cell was incubated with the sample to be tested to initiate a reaction;
2. The stock to be tested is diluted 5 folds to be a buffer solution;
3. The 5-fold diluted solution (5 μL) was added to the cells and incubated at 37° C. for 90-180 minutes. The solvent concentration was 1%.
1. 12.5 μL or 15 μL of PathHunter detection reagent (50 vol. %) was added in one portion and then incubated for 1 hour at room temperature to generate a detection signal;
2. The microplate was read using a PerkinElmer Envision™ instrument for chemiluminescent signal detection.
1. Compound activity analysis was performed using a CBIS Data Analysis Kit;
2. Calculation formula: % activity=100%×(average RLU of sample to be test-average RLU of solvents)/(average maximum control ligand−average RLU of solvents)

Where [2] appears, read: male, Sprague-Dawley, rat, plasma, 3 mg/kg, 3 mpk.
The mark [3] stands for this setting: male, Sprague-Dawley, rat, plasma, intravenous, 3 mg/kg, 3 mpk, read-out: Clearance.
Setting [4] is: male, Sprague-Dawley, rat, plasma, 2 mg/kg, 2 mpk.

pEC50: −log10 of the molar value. Read-outs that look alike come from different tables or passages of the source.

T1 sequence (P21453 whole entry): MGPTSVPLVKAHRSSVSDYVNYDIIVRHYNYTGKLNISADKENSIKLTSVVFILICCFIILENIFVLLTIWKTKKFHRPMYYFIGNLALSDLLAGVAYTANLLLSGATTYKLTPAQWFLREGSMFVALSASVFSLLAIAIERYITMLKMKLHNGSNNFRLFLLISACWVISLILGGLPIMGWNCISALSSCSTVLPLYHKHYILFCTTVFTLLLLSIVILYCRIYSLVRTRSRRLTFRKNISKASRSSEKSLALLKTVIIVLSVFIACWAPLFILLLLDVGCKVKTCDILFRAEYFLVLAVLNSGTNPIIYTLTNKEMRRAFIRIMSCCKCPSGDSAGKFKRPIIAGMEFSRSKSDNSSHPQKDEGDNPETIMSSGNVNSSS

For orientation: bioavailability means dose-corrected exposure relative to a reference, in per cent. By pEC50 is commonly meant −log10 of the EC50, conventionally taken in molar units. Consider `CC(C)Oc1ccc(-c2nc(-c3cccc4c3CCC43CC(=O)N(CCO)C3)no2)cc1C#N` (single isomer, unassigned) [Example 21 isomer 1], for which, in data set [1] (setting [2]), the AUC was found to be 12.6 µM·h, the half-life was 3.02 h and the bioavailability came out at 100%. Besides, the clearance in data set [1] (setting [3]) was 8.65 mL/min/kg. Also, the pEC50 on S1P1 receptor is at least 8.00.
Consider `CC(C)Oc1ccc(-c2nc(-c3cccc4c3CCC43CC(=O)N(CCO)C3)no2)cc1C#N` (single isomer, unassigned) [Example 21 isomer 2], for which, in data set [1] (3 mpk, 3 mg/kg), the “Bioavailability F” value stood at 89.6%, the “Concentration integral AUC” value was found to be 8.483 µM·h, the “Half life T1/2” value came to 3.22 h and the clearance is 11.6 mL/min/kg.
As for `CC(C)Oc1ccc(-c2nc(-c3cccc4c3CCC43CCN(C4CC(C(=O)O)C4)C3)no2)cc1C#N` (single isomer, unassigned) [Example 47 Isomer 3], the “Bioavailability F” value in data set [1] (3 mpk, 3 mg/kg) came to 48.7%. Besides, in data set [1] (setting [2]), the AUC is 5.66 µM·h and the half-life was 3.98 h. Further, the clearance in data set [1] (setting [3]) was 8.81 mL/min/kg.
Consider `CC(C)Oc1ccc(-c2nc(-c3cccc4c3CCC43CCN(C4CC(C(=O)O)C4)C3)no2)cc1C#N` (single isomer, unassigned) [Example 47 Isomer 4], for which, in data set [1] (3 mpk, 3 mg/kg), the “Bioavailability F” value stood at 89.6%, the “Concentration integral AUC” value was found to be 8.483 µM·h, the “Half life T1/2” value turned out to be 3.22 h and the clearance is on record as 11.6 mL/min/kg.
Regarding `CC(C)Oc1ccc(-c2nc(-c3cccc4c3CCC43CC(=O)N(CCO)C3)no2)cc1C(F)F` (stereo not shown) [Example 9], in data set [1] (setting [4]), the AUC was found to be 4.35 µM·h, the half-life is 99.3 h and the bioavailability amounted to 89.4%. Further, in data set [1] (male, Sprague-Dawley, rat, plasma, intravenous, 2 mg/kg, 2 mpk, read-out: Clearance), the clearance is 2.52 mL/min/kg. On S1P1 receptor, this compound gave a pEC50 of at least 8.00.
`CC(C)Oc1ccc(-c2nc(-c3cccc4c3CCC43CCC(=O)N3CCO)no2)cc1C#N` (stereo not shown) [Example 31] showed a negative logarithm of the EC50 (pEC50) on S1P1 receptor of 7.00 to 8.00.
Still for that read-out and setting: to `CC(C)Oc1ccc(-c2nc(-c3cccc4c3CCC43CCC(CO)N3)no2)cc1C#N` (stereo not shown) [Example 32] belongs 7.00 to 8.00.
As to `CC(C)Oc1ccc(-c2nc(-c3cccc4c3CCCC43CC(=O)N(CCO)C3)no2)cc1C#N` (stereo not shown) [Example 33], the pEC50 on S1P1 receptor was at least 8.00.
On the same count and under the same terms, then `CC(C)Oc1ccc(-c2nc(-c3cccc4c3CCC43CCC(=O)N(CCO)C3)no2)cc1C#N` (stereo not shown) [Example 34], with at least 8.00.
Turning to `CC(C)Oc1ccc(-c2nc(-c3cccc4c3CCC43CCN(CCO)C3)no2)cc1C#N` (stereo not shown) [Example 35], the pEC50 on S1P1 receptor was at least 8.00.
At S1P1 receptor, `CC(C)Oc1ccc(-c2nc(-c3cccc4c3CCC43CC(=O)N(CCO)C3=O)no2)cc1C#N` (stereo not shown) [Example 36] had a negative logarithm of the EC50 (pEC50) of at least 8.00.
The compound `CC(C)Oc1ccc(-c2nc(-c3cccc4c3CCC43COC(=O)N3CCO)no2)cc1C#N` (stereo not shown) [Example 37] showed a negative logarithm of the EC50 (pEC50) on S1P1 receptor of 7.00 to 8.00.
On S1P1 receptor, `CC(C)Oc1ccc(-c2nnc(-c3cccc4c3CCC43CC(=O)N(CCO)C3)s2)cc1C#N` (stereo not shown) [Example 38] showed a pEC50 of at least 8.00.
As to `CC(C)Oc1ccc(-c2nsc(-c3cccc4c3CCC43CC(=O)N(CCO)C3)n2)cc1C#N` (stereo not shown) [Example 39], the negative logarithm of the EC50 (pEC50) at S1P1 receptor is 7.00 to 8.00.
In the case of `CC(C)Oc1ccc(-c2nc(-c3cccc4c3CCC43CC(=O)N(CCO)C3)ns2)cc1C#N` (stereo not shown) [Example 40], the pEC50 on S1P1 receptor is at least 8.00.
As for `CC(C)Oc1ccc(-c2ncc(-c3cccc4c3CCC43CC(=O)N(CCO)C3)s2)cc1C#N` (stereo not shown) [Example 41], the pEC50 on S1P1 receptor was at least 8.00.
In the case of `CC(C)Oc1ccc(-c2ncc(-c3cccc4c3CCC43CC(=O)N(CCO)C3)o2)cc1C#N` (stereo not shown) [Example 42], the negative logarithm of the EC50 (pEC50) on S1P1 receptor was 7.00 to 8.00.
Regarding `CC(C)Oc1ccc(-c2ccc(-c3cccc4c3CCC43CC(=O)N(CCO)C3)s2)cc1C#N` (stereo not shown) [Example 43], the pEC50 on S1P1 receptor is 7.00 to 8.00.
With `CC(C)Oc1ccc(-c2ncc(-c3cccc4c3CCC43CC(=O)N(CCO)C3)cn2)cc1C#N` (stereo not shown) [Example 44], the pEC50 on S1P1 receptor is at least 8.00.
Same read-out and setting: then `CC(C)Oc1ccc(-c2cnc(-c3cccc4c3CCC43CC(=O)N(CCO)C3)cn2)cc1C#N` (stereo not shown) [Example 45], with at least 8.00; and `CC(C)Oc1ccc(-c2nc(-c3cccc4c3CCC43CCN(C4CC(C(=O)O)C4)C3)no2)cc1C#N` (stereo not shown) [Example 47], with at least 8.00.
Regarding `CC(C)Oc1ccc(-c2nc(-c3cccc4c3CCC43CCN(CC(=O)O)C3)no2)cc1C#N` (stereo not shown) [Example 48], the pEC50 on S1P1 receptor was at least 8.00.
For `CC(C)Oc1ccc(-c2nc(-c3cccc4c3CC[C@@H]4NCCO)no2)cc1C#N` [Ozanimod, reference compound], in data set [1] (setting [2]), the AUC turned out to be 1.12 µM·h, the half-life is 5.24 h and the bioavailability was 41.6%. Also, the clearance in data set [1] (setting [3]) turned out to be 46.3 mL/min/kg.
